# Laboratory results as given in patent publication US20210087548A1, “Compositions and Methods for Inducing Protein Function” (priority 2017, published 2021).
# Legend:
# human VEGFA locus = format: cell-based; conditions: for VEGF concentration, empty vector control cells in respective drug (average): HEK293A, 48 hrs, average of 3 independent experiments
# HCV genotype 1a NS3 Wt = conditions: in vitro replication assay; cited from earlier work
# HCV genotype 1a NS3 V36M = conditions: in vitro replication assay; cited from earlier work
# HCV genotype 1a NS3 T54A = conditions: in vitro replication assay; cited from earlier work
# [1] = test system: HCV genotype 1a NS3 S122G; conditions: in vitro replication assay; cited from earlier work
# HCV genotype 1a NS3 F43L = conditions: in vitro replication assay; cited from earlier work
# HCV genotype 1a NS3 Q80K = conditions: in vitro replication assay; cited from earlier work
# [2] = test system: HCV genotype 1a NS3 S122R; conditions: in vitro replication assay; cited from earlier work
# [3] = test system: HCV genotype 1a NS3 D168Y; conditions: in vitro replication assay; cited from earlier work
SMILES,VEGF amounts in the culture medium (human VEGFA locus; HEK293A co-transfected with ZF-StaPL(ti)-tdRFP-KRAB and ZF-StaPL(ai)-YFP-VPR),"VEGF concentration, empty vector control cells in respective drug (average) (human VEGFA locus) [pg/mL]",EC50 (HCV genotype 1a NS3 Wt) [nM],EC50 (HCV genotype 1a NS3 V36M) [nM],EC50 (HCV genotype 1a NS3 T54A) [nM],EC50 [1] [nM],EC50 (HCV genotype 1a NS3 F43L) [nM],EC50 (HCV genotype 1a NS3 Q80K) [nM],EC50 [2] [nM],EC50 [3] [nM]
"C=C[C@@H]1C[C@]1(NC(=O)[C@@H]1C[C@@H](Oc2ncc(OC)c3ccc(Cl)cc23)CN1C(=O)[C@@H](NC(=O)OC(C)(C)C)C(C)(C)C)C(=O)NS(=O)(=O)C1CC1 [ASV, asunaprevir]",increased,673,0.76,1.5,0.33,0.65,2.7,2.5,2.6,473
"CCC[C@H](NC(=O)[C@@H]1[C@H]2CCC[C@H]2CN1C(=O)[C@@H](NC(=O)[C@@H](NC(=O)c1cnccn1)C1CCCCC1)C(C)(C)C)C(=O)C(=O)NC1CC1 [TPV, telaprevir]",,930,,,,,,,,
